Data from PMC8063965 (Journal of medicinal chemistry, 2021).

Columns and labels:
[1] = target: T1, full-length hHDAC6 (Homo sapiens, UniProt Q9UBN7); test: EMSA activity-based inhibition assay, HDAC6; type: biochemical; conditions: for fold improvement of potency on moving the fluorine substituent: ortho- and meta-fluoro versus parent analog, selectivity was lost
T1 sequence (Q9UBN7 1-1215): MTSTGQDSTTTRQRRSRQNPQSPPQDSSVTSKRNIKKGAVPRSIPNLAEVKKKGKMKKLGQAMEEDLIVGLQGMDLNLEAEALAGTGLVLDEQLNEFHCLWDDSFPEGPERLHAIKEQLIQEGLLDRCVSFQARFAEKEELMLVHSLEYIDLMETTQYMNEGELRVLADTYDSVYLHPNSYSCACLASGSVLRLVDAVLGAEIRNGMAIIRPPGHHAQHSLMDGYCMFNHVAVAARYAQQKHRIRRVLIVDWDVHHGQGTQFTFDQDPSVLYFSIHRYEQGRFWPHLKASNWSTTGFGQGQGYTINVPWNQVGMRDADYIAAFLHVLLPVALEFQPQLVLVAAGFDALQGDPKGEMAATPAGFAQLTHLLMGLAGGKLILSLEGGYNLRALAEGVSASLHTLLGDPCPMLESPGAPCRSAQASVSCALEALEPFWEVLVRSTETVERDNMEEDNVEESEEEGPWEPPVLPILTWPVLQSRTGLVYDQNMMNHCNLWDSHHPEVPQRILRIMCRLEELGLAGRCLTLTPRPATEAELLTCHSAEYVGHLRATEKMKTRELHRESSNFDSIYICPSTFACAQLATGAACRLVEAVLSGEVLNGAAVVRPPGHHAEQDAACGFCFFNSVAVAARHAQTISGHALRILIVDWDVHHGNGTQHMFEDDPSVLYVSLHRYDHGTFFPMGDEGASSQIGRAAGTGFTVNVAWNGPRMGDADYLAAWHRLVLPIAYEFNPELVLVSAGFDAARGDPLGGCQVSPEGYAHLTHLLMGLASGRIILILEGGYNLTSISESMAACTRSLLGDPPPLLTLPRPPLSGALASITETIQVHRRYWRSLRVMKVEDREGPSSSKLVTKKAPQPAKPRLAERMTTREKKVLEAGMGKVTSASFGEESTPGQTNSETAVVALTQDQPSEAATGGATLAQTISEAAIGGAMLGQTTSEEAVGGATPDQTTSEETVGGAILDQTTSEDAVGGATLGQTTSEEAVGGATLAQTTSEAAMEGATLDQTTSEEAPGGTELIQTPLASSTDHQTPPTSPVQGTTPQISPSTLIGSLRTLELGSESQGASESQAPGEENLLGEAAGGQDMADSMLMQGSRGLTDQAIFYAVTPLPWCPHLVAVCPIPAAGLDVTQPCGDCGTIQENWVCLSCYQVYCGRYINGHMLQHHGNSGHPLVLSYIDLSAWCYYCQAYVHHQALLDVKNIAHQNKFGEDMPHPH

[2] = tested on: Ac-histone H3 in MV4–11 cells; test: Western blot of Ac-histones; type: cell-based
[3] = tested on: MV4–11 cells; test: FACS apoptosis detection assay; type: cell-based
[4] = tested on: Ac-α-tubulin in MV4–11 cells; test: Western blot of Ac-α-tubulin; type: cell-based
[5] = tested on: Ac-histone in HeLa cells; test: Immunofluorescence assay, Ac-histone; type: cell-based; conditions: 0.1 μM or 2 μM, 6 h
[6] = tested on: six leukemic cancer cells; test: Cytotoxicity assay; type: cell-based; conditions: 72 h, read-out: average anti-proliferative IC50
[7] = tested on: 'normal' MRC9 lung fibroblasts; test: Cytotoxicity assay; type: cell-based; conditions: 72 h
[8] = tested on: Ac-α-tubulin in HeLa cells; test: Immunofluorescence assay, Ac-α-tubulin; type: cell-based; conditions: 6 h
[9] = target: T2, drHDAC6 CD2 (Danio rerio, UniProt F8W4B7); test: Fluorescence polarization; type: binding, Danio rerio (zebrafish); conditions: orthogonal fluorescence polarization assay
T2 sequence (F8W4B7 440-798 limits assumed): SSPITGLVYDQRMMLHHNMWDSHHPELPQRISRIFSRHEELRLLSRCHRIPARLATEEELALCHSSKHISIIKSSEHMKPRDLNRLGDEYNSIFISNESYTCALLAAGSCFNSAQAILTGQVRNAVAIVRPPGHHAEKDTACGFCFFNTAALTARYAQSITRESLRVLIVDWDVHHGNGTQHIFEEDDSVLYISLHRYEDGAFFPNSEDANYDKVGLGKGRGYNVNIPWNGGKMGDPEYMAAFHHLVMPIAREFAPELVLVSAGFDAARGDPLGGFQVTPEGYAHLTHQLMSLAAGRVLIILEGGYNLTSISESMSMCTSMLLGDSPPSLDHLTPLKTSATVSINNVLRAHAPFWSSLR

[10] = tested on: MV4–11 cells; test: Detection of ROS generation; type: cell-based; conditions: MV4–11, 10 μM, up to 4 h, versus DMSO control
[11] = Pooled human whole blood stability assay; type: in vitro ADME; conditions: triplicate
[12] = Mouse plasma stability assay; type: in vitro ADME; conditions: triplicate
[13] = target: T3, HDAC6 (Homo sapiens, UniProt Q9UBN7); test: Intact mass spectrometry analysis of the enzyme; conditions: intact mass spectrometry on treatment with compound
T3 sequence (Q9UBN7 1-1215): T1 sequence (Q9UBN7 1-1215)

With O=C(NO)c1ccc(CN(Cc2cccc(F)c2)S(=O)(=O)c2cc(F)c(F)c(F)c2F)cc1 [Compound 12] the “fold improvement of potency on moving the fluorine substituent” value [1] was 2 fold.

For O=C(NO)c1ccc(CN(Cc2cccnc2)S(=O)(=O)c2cc(F)c(F)c(F)c2F)cc1 [TO-317], the Ac-histones accumulation ([2]; MV4–11 cells, at 0.25 μM, 6 hours) was “minimal accumulation”, the “concentration required to observe distinct acetylation of H3 histone” value ([2]; cells not given) was ~ 0.75 μM and the “early and late apoptotic cell populations, combined” value ([3]; MV4–11, 0.25 μM) was 11%. The “early and late apoptotic cell populations, combined” value ([3]; MV4–11, 2 μM) was 65%, the “early and late apoptotic cell populations, combined” value ([3]; MV4–11, 4 μM) was 73% and the “necrosis (UL sub-population)” value ([3]; MV4–11, across the range of concentrations tested, versus DMSO control) was “does not show statistically different changes to necrosis”. The “Ac-α-tubulin levels at 0.25 μM” value ([4]; MV4–11 cells, 0.25 μM, 6 hours) was “significant increase”, the “lowest concentration giving preferential increase in acetylated α-tubulin” value ([4]; dose-dependent, cells not given) was 50 nM and the “levels of Ac-histone (green stain)” value [5] was “do not change significantly”. The IC50 [6] was less than 2 µM, the “activity in normal cells” value [7] was “minimal activity” and the “accumulation of Ac-α-tubulin (red stain) at 2 μM” value [8] was “significant accumulation”. The “potency of interaction with drHDAC6 CD2 (FP)” value [9] was 0.004 µM, the ROS generation [10] was “markedly increased levels of ROS after 2 h incubation” and the “Remaining percentage concentration, 0 min” value [11] was 100%. For the same compound, the “Remaining percentage concentration, 0 min” value [12] was 100% and the “covalent modification of the enzyme” value [13] was “no covalent modification of the enzyme was observed”.

Compound O=C(NO)c1ccc(CN(Cc2ccncc2)S(=O)(=O)c2c(F)c(F)c(F)c(F)c2F)cc1 [Compound 8] has an HDAC6 selectivity ([1]; against 4 representative HDAC homologs (Table 1)) greater than 71 fold.

In the case of O=C(CCCCCCNC(=O)c1cnc(N(c2ccccc2)c2ccccc2Cl)nc1)NO [Citarinostat, reference compound], the “accumulation of Ac-α-tubulin (red stain) at 2 μM” value [8] is reported as “slightly less prominent”.

In the case of O=C(NO)c1ccc(CN(Cc2ccccn2)S(=O)(=O)c2cc(F)c(F)c(F)c2F)cc1 [Compound 14], the “fold more potent against HDAC6 compared to 9” value ([1]; relative to 9) is reported as 2 fold.

For O=C(NO)c1ccc(CN(Cc2ccccc2F)S(=O)(=O)c2cc(F)c(F)c(F)c2F)cc1 [Compound 13], the “fold improvement of potency on moving the fluorine substituent” value [1] was 2 fold.
